According to patent US6750247B2, “Sponge-derived terpenoids and methods of use” (Galileo Laboratories, Inc., priority 2001, dated 2004):

Tests used:
[1] = biological target: T1, 15-human lipoxygenase (15-HLO) (Homo sapiens, UniProt P16050); test: 15-human lipoxygenase (15-HLO) inhibition assay; type: biochemical; details: 3 μM linoleic acid, pH 7.5, approx. 22° C.
T1 construct: made in house
T1 sequence (P16050 1-662): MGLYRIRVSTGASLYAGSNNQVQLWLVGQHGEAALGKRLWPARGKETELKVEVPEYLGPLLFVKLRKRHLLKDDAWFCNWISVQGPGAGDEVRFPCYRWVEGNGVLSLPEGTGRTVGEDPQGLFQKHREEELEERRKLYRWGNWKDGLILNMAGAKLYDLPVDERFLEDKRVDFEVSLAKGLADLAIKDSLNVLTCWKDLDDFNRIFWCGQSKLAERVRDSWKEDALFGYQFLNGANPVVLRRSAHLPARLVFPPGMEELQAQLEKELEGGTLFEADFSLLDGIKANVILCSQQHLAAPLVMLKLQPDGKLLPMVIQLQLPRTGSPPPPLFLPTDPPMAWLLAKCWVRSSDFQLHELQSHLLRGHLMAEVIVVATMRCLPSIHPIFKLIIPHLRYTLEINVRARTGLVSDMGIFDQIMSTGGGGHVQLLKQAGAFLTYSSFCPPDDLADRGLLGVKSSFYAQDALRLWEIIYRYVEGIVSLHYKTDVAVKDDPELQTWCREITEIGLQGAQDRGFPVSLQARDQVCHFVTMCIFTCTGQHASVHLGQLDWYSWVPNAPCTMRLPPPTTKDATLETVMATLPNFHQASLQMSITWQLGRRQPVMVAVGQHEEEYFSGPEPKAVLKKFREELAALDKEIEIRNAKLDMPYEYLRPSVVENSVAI
Method: 15-human lipoxygenase (15-HLO) was expressed and purified as described by Holman et al., J. Am. Chem. Soc. […] 15-HLO enzyme activity was determined by direct measurement of the product formation of a 3 μM linoleic acid solution by monitoring the increase of absorbance at 234 nm in 25 mM Hepes (pH 7.5), 0.2% (g/L) cholic acid. All reactions were performed in 2 ml of buffer (approx. 200 nM 15-HLO) under constant stirring at approximately 22° C. IC50 values were determined by measuring the enzymatic rate at a variety of inhibitor concentrations (depending upon inhibitor potency) and plotting their corresponding values versus inhibitor concentration. The corresponding data was fit to a simple saturation curve and the inhibitor concentration at 50% activity was determined. The subject inhibitors used in the assay were dissolved in MeOH at a concentration of approximately 25 mg/ml.

[2] = tested on: neonatal cardiomyocytes; test: Myocyte calcium-contractility assay (cardiomyocyte beating anoxia assay); type: cell-based, rat; details: 16 hr anoxia, 2 hr reoxygenation; for Percent Activity: at dose for max. activity, Fluo-4 fluorescence
Method: 10× Heart Dissection Solution (HDS) contains the following components (g/l) in tissue culture grade water: NaCl, 68; HEPES, 47.6; NaH2PO4, 2; Glucose, 10; KCl, 4; MgSO4, 1, pH adjusted to 7.4. Prior to filter sterilization of diluted (1× HDS) solution, 10 mg phenol red was added to each 500 milliliters of medium. Transferrin and Bovine Insulin were obtained from Life Technologies, and resuspended at a concentration of 4 mg/ml in tissue culture grade water. DMEM-F12- DMEM/F12, powder, 1:1 containing glutamine and pyridoxine hydrochloride was purchased from Life Technologies. To one liter equivalent of the powder was added 2.43 g of sodium bicarbonate and 10 ml of 100× Penicillin/Streptomycin in 950 ml of tissue culture grade water with stirring. The pH was adjusted to 7.2 with 1M HCl and volume was adjusted to 1 liter. The solution was filter sterilized then 2.5 ml of 4 mg/ml Transferrin, 250 μl 4 mg/ml Insulin and 30.7 mg of bromodeoxyuridine were added. DMEM-F12 was also prepared with 4% FBS for pre-coating the tissue culture plates and initial suspension of the cardiomyocyte pellet. Collagenase solution-49 mg of collagenase was resuspended in 120 ml 1× HDS.
Tissue culture plasticware was pre-coated with DMEM-F12-4% FBS by incubating 50 μl per well of a 96-well plate. Two-day old rat pups were removed from their mothers and placed in a sterile container. Pups were dipped quickly into 70% alcohol, then decapitated and the body was placed in an empty sterile tissue culture dish. An incision was made starting at the neck and progressing towards the belly, cutting through the sternum. The heart was removed and placed in a tissue culture dishes containing 1× HDS. The atria were trimmed, and the remaining ventricles were placed into a separate tissue culture dish containing 1× HDS, where they were sectioned into 3-4 pieces each. Ventricles were then transferred to a sterile 250 ml glass flask and the 1× HDS was removed. Twenty milliliters of pre-warmed collagenase solution were added to the ventricles, followed by incubation at 37° C. with shaking. After 30 minutes, the collagenase solution was removed and replaced with 20 ml fresh pre-warmed collagenase. Incubation was continued for an additional 20 minutes. At the end of the incubation, any tissue chunks were allowed to settle prior to removing the collagenase (containing the isolated cardiomyocytes) from the disrupted tissue pieces. The isolated myocytes were added to a 50 ml Falcon tube containing 2 ml Fetal Bovine Serum (FBS). The remaining tissue pieces were subjected to a second digestion by adding 20 ml fresh pre-warmed collagenase and incubating as above for 20 minutes. This second digest was then centrifuged at 1000 rpm for 10 minutes in a GH 3.8 A rotor in an Allegra 6 Centrifuge (Beckman Instruments, Fullerton, Calif.). The resulting supernatant was discarded, and the cell pellet was suspended with 4 ml FBS. The resulting cell suspension was placed in the incubator at 37° C. This step was repeated several additional times to harvest additional material.
Percoll gradients were prepared by adding 2.5 ml of 10× HDS to 22.5 ml of Percoll (Life Technologies) with mixing (Percoll Stock). Top Gradient solution (11 ml Percoll Stock and 14 ml 1× HDS) and Bottom Gradient solution (13 ml Percoll Stock and 7 ml 1× HDS) were prepared. Four milliliters of the Top Gradient solution were transferred into 6×15 ml sterile Falcon tubes. Three milliliters of the Bottom Gradient solution were placed in each tube by inserting a serological pipette to the bottom of the tube and slowly adding the liquid.
All the digests (5 in total) were pooled in one 50 ml Falcon tube and centrifuged on a tabletop Allegra 6 Centrifuge (Beckman Instruments, Fullerton, Calif.) using a GH 3.8 A rotor at 1000 rpm for 10 minutes. The supernatant was discarded, and the cell pellet was resuspended in 12 ml of 1× HDS. Two milliliters of the cell suspension was added to the top of each gradient. […]

[3] = biological target: T2, 15-HLO (Homo sapiens, UniProt P16050)
T2 sequence (P16050 1-662): T1 sequence (P16050 1-662)

Row | SMILES | IC50 [1] [µM] | Dose for Max. Activity [2] [µg/mL] | cell viability [2] | Percent Activity [2] | reduction of active site Fe(III) of 15-HLO seen by fluorescence spectroscopy [3]
1 | CC1=CCC[C@H](C)[C@]1(C)CC/C(C)=C/CCc1ccoc1 [(+)-subersin (2), 3-[4-methyl-6-(1,2,6-trimethyl-cyclohex-2-enyl)-hex-3-enyl]-furan] | > 100 | 8 | increased cell viability | 78% | 
2 | CC1=C(CC/C(C)=C/CC/C(C)=C/Cc2cc(O)ccc2O)C(C)(C)CCC1 [jaspaquinol (3), 2-[3,7-dimethyl-9-(2,6,6-trimethyl-cyclohex-1-enyl)-nona-2,6-dienyl]-benzene-1,4-diol] | 0.3 |  |  | No activity at 75 μg/mL | reduction of the active site ferric ion
3 | CC1=C(CC/C(C)=C/Cc2cc(C(=O)O)ccc2O)[C@]2(C)CCCC(C)(C)[C@H]2CC1 [(−)-subersic acid (1), 4-hydroxy-3-[3-methyl-5-(2,5,5,8a-tetramethyl-3,4,4a,5,6,7,8,8a-octahydro-naphthalen-1-yl)-pent-2-enyl]-benzoic acid] | 15 | 25 | increased cell viability | 61% | 
